From PubChem BioAssay (NCI)
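All cell lines were grown in 96-well plates and treated with compound for 48 hours. TGI is the concentration that stops growth completely.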

Assays:
Assay in all cases: growth of human tumour cells (NCI), 48 h
786-0 renal = test system: 786-0 renal
A498 renal = test system: A498 renal
A549 NSCLC = test system: A549 NSCLC
ACHN renal = test system: ACHN renal
BT-549 breast = test system: BT-549 breast
CAKI-1 renal = test system: CAKI-1 renal
CCRF-CEM leukemia = test system: CCRF-CEM leukemia
COLO 205 colon = test system: COLO 205 colon
DU-145 prostate = test system: DU-145 prostate
EKVX NSCLC = test system: EKVX NSCLC
HCC-2998 colon = test system: HCC-2998 colon
HCT-116 colon = test system: HCT-116 colon
HCT-15 colon = test system: HCT-15 colon
HL-60(TB) leukemia = test system: HL-60(TB) leukemia
HOP-62 NSCLC = test system: HOP-62 NSCLC
HOP-92 NSCLC = test system: HOP-92 NSCLC
HS 578T breast = test system: HS 578T breast
HT29 colon = test system: HT29 colon
IGROV1 ovarian = test system: IGROV1 ovarian
K-562 leukemia = test system: K-562 leukemia
KM12 colon = test system: KM12 colon
LOX IMVI melanoma = test system: LOX IMVI melanoma
M14 melanoma = test system: M14 melanoma
MALME-3M melanoma = test system: MALME-3M melanoma
MCF7 breast = test system: MCF7 breast
MDA-MB-231 breast = test system: MDA-MB-231 breast
MDA-MB-435 = test system: MDA-MB-435
MDA-N = test system: MDA-N
NCI-H226 lung = test system: NCI-H226 lung
NCI-H23 lung = test system: NCI-H23 lung
NCI-H460 lung = test system: NCI-H460 lung
NCI-H522 lung = test system: NCI-H522 lung
NCI/ADR-RES ovarian = test system: NCI/ADR-RES ovarian
OVCAR-3 ovarian = test system: OVCAR-3 ovarian
OVCAR-4 ovarian = test system: OVCAR-4 ovarian
OVCAR-5 ovarian = test system: OVCAR-5 ovarian
OVCAR-8 ovarian = test system: OVCAR-8 ovarian
PC-3 prostate = test system: PC-3 prostate
RPMI-8226 leukemia = test system: RPMI-8226 leukemia
RXF 393 renal = test system: RXF 393 renal
SF-268 CNS = test system: SF-268 CNS
SF-295 CNS = test system: SF-295 CNS
SK-MEL-2 melanoma = test system: SK-MEL-2 melanoma
SK-MEL-28 melanoma = test system: SK-MEL-28 melanoma
SK-MEL-5 melanoma = test system: SK-MEL-5 melanoma
SK-OV-3 ovarian = test system: SK-OV-3 ovarian
SN12C renal = test system: SN12C renal
SNB-19 CNS = test system: SNB-19 CNS
SNB-75 CNS = test system: SNB-75 CNS
SR leukemia = test system: SR leukemia
SW-620 colon = test system: SW-620 colon
T-47D breast = test system: T-47D breast
TK-10 renal = test system: TK-10 renal
U251 CNS = test system: U251 CNS
UACC-257 melanoma = test system: UACC-257 melanoma
UACC-62 melanoma = test system: UACC-62 melanoma
UO-31 renal = test system: UO-31 renal
MOLT-4 leukemia = test system: MOLT-4 leukemia
SF-539 CNS = test system: SF-539 CNS

Measured: TGI

CC1NCCC(CC(=O)O)C1CC(=O)O (stereo unspecified)
not listed: MOLT-4 leukemia | SF-539 CNS
> 100 µM: all other assays above

CC(C)C(C=O)C(O)(C(F)(F)F)C(F)(F)F (stereo unspecified)
not listed: CCRF-CEM leukemia | HOP-62 NSCLC | IGROV1 ovarian | SF-268 CNS | SN12C renal
> 100 µM: all other assays above
